# Experimental data reported in patent US9949968B2, “Diarylalkylamine REV-ERB antagonists and their use as medicaments” (FONDAZIONE ISTITUTO ITALIANO DI TECNOLOGIA, priority 2013, dated 2018).
# Counter-ions that a name gives are not always drawn.
# How the values were obtained:
# REV-ERB = test: Luciferase-based assay of REV-ERB mediated transcriptional regulation (RevRE/SV40-CLuc reporter in HEK-293 cells); type: cell-based; settings: HEK-293 cells transfected with RevRE reporter and REV-ERBα and/or β; read 24 h post-transfection; read-out: REV-ERB antagonism EC50
# From the text: Luciferase-Base Assay to Assess the Activity of the Compounds on REV-ERB Mediated Transcriptional Regulation
# In order to assess the effect of the compounds of the invention on REV-ERB activity the inventors exploited the ability of REV-ERB to repress gene transcription of a specific DNA cis-element. In fact, the DNA binding domain (DBD) of REV-ERB recognizes specific DNA sequences (called RevREs=Rev-erb Responsive Elements) which contains an AGGTCA motif linked in 5′ to an A/T rich sequence harboring the following consensus: A/T A A/T N T (Harding et al., Mol Cell Biol., 1993; 13:3113).
# Therefore, two repetitions of the RevRE consensus AGAATGTAGGTCA (SEQ ID NO: 13) upstream a SV40 promoter driving the expression of a reporter gene were cloned. As reported, the luciferase enzyme from the ostracod Cypridina noctiluca was adopted. […] Cypridina luciferase (CLuc) is secreted from cells by virtue of its natural signal peptide and its luminescence can be measured from the supernatant of transfected cells. Therefore, cell lysis is not necessary. Secreted CLuc is a very stable protein. Because of this property, the activity measured from the supernatant reflects the amount of protein accumulated up to the time of sampling. Multiple samples can therefore be obtained from the same transfected cells, allowing an easy set-up of time-course experiments. In addition, the direct use of the supernatant makes the system easily prone to automation for High Throughput Screening.
# In order to normalize the experiment for the transfection efficiency, it was used a plasmid containing a SV40 promoter driving the expression of a secreted form of human alkaline phosphatase (SEAP), which enzymatic activity in the supernatant can be measured with chemiluminescence substrates.
# To be able to rule out false-positive, for example due to the interference of the compounds to be tested with the fluorescence and/or chemiluminescence reactions, it was used as control a mutated version of the RevRE (GAGCCCGTAGGTCA) (SEQ ID NO: 14) that is no longer able to bind REV-ERB DBD (Harding et al., Mol Cell Biol., 1993; 13:3113).
# The person skilled in the art will appreciate that an agonist will improve the ability of REV-ERB to repress the transcription, reducing the luminescence signal, while an antagonist will produce the opposite effect.
# For the assay, HEK-293 cells were transfected with the reporter vectors and a plasmid expressing the REV-ERBα and/or β protein. After 6 h from transfection, the medium was replaced with fresh medium containing different doses of the compounds or vehicle (DMSO). After 24 h post-transfection, the supernatant was analyzed for the secreted luciferase and AP activity according to the manufacture instruction. Data normalized as fold activation versus vehicle (DMSO) were fitted using a four-parameter dose-response curve to calculate the EC50 of the different compounds.
# (§1) The different compounds were tested for their ability to inhibit the growth of the tumorigenic breast cancer cells BT-474 and for their antagonistic activity toward REV-ERB transcriptional repression, as described in the biological method section.
# For the cell growth inhibition (GI) the growth inhibition 50 (GI50) and the growth inhibition max (GImax) are reported. […] The bottom plateaus of the curve was used to calculate the Growth Inhibition max (GImax), defined as the percentage of the reduction of cells after 48 h upon a saturating dose of the administered compound. Compounds with a GI50<100 μM were also tested for their antagonistic activity toward REV-ERB. […]
# [1] = tested on: tumorigenic breast cancer cells BT-474; test: Growth inhibition assay (CyQUANT Cell Proliferation Assay) in BT-474 cells; type: cell-based; settings: Homo sapiens; for GI50: 48 h, CyQUANT, read-out: Cell Growth Inibition GI50; for Emax: reduction of cells after 48 h at saturating dose, read-out: Cell Growth Inibition GImax
# From the text: Given that REV-ERB target genes include several metabolic regulators, such as Pgc-1α and Nampt, it was decided to test the cell proliferation with a method that is independent from the metabolic state of the cell.
# The CyQUANT® Cell Proliferation Assay Kit (Invitrogen) was used, an assay that has a linear detection range extending from 50 or fewer to at least 250,000 cells.
# Frozen cells are simply thawed and lysed by addition of a buffer containing the CyQUANT®.
# For the assay, tumorigenic breast cancer cells BT-474 cells were seeded at 2500 cells per well in a 96-well plate and incubated over-night at 37° C. Then, fresh medium containing different concentration of the compounds or vehicle (DMSO) was added and cells were growth 48 h at 37° C. Finally, cells were frozen at […] and then processed according to the manufacture instructions. A minimum of triplicate data for each dose was used for the analysis.
# Data were collected and analyzed with Prism 5 software to calculate the growth inhibition curve.
# In particular, values obtained from the DMSO treated cells was set at 100% of growth. Data from treatment of cells with serial dilutions of the compounds were normalized versus the DMSO group and fitted using a four-parameter dose-response curve.
# GI50 was calculated as the concentration of compound that gives a response half way between bottom and top plateaus of the fitted curve.
# The bottom plateaus of the fitted curve was used to calculate the Growth Inhibition max (GImax), defined as the percentage of the reduction of cells after 48 h upon a saturating dose of compound.
# as §1
# For the cell growth inhibition (GI) the growth inhibition 50 (GI50) and the growth inhibition max (GImax) are reported. […] The bottom plateaus of the curve was used to calculate the Growth Inhibition max (GImax), defined as the percentage of the reduction of cells after 48 h upon a saturating dose of the administered compound. Compounds with a GI50<100 μM were also tested for their antagonistic activity toward REV-ERB. For these compounds, the EC50 value is provided, calculated as the concentration of compound that gives a response half between the bottom (expression of the reporter in absence of compound) and the top (expression of the reporter at saturating doses of compound) plateaus of the fitted curves (see biological method section for a description of the reported assay). n.d.=not determined; n.t.=not tested.
EC50 (REV-ERB) [µM],GI50 [1] [µM],SMILES,Emax [1] [%]
47,30,"CN1CCN(Cc2cccc(CNC3(c4ccccc4F)CCCC3)c2)CC1 [Example 4, 1-(2-Fluorophenyl)-N-[[3-[(4-methylpiperazin-1-yl)methyl]phenyl]methyl]-cyclopentanamine trihydrochloride]",73
11,5,"CN1CCC(Cc2cccc(CN(C)C3(c4ccccc4F)CCCC3)c2)CC1 [Example 19, 1-(2-fluorophenyl)-N-methyl-N-[[3-[(1-methyl-4-piperidyl)methyl]phenyl]methyl]cyclopentanamine dihydrochloride]",90
24,18,"CN1CCN(Cc2cc(CNC3(c4ccccc4)CCCC3)ccc2O)CC1 [Example 7, 2-[(4-Methylpiperazin-1-yl)methyl]-4-[[(1-phenylcyclopentyl)amino]methyl]-phenol trihydrochloride]",70
12,11,"CN1CCN(Cc2cc(CNC3(c4ccccc4F)CCN(Cc4ccccc4)CC3)ccc2O)CC1 [Example 20, 4-[[[1-Benzyl-4-(2-fluorophenyl)-4-piperidyl]amino]methyl]-2-[(4-methylpiperazin-1-yl)methyl]phenol tetrahydrochloride]",92
40,23,"Oc1ccc(CNC2(c3ccccc3F)CCCC2)cc1CN1CCN(Cc2ccccc2)CC1 [Example 12, 2-[(4-Benzylpiperazin-1-yl)methyl]-4-[[[1-(2-fluorophenyl)cyclopentyl]amino]-methyl]phenol trihydrochloride]",77
6,3,"CN1CCC(Cc2cccc(CNC3(c4ccccc4F)CCOCC3)c2)CC1 [Example 30, 4-(2-Fluorophenyl)-N-[[3-[(1-methyl-4-piperidyl)methyl]phenyl]methyl]tetrahydropyran-4-amine dihydrochloride]",95
23,19,"COc1ccccc1C1(NCc2ccc(O)c(CN3CCN(C)CC3)c2)CCCC1 [Example 14, 4-{[1-(2-Methoxy-phenyl)-cyclopentyl-amino]-methyl}-2-(4-methylpiperazin-1-ylmethyl)-phenol trihydrochloride]",82
45,30,"Oc1ccc(CNC2(c3ccccc3F)CCCC2)cc1CN1CCCCC1 [Example 2, 4-[[[1-(2-Fluorophenyl)cyclopentyl]amino]methyl]-2-(1-piperidylmethyl)phenol dihydrochloride]",55
38,30,"CN1CCN(Cc2cc(CNC3(c4ccccc4F)CCC3)ccc2O)CC1 [Example 33, 4-[[[1-(2-Fluorophenyl)cyclobutyl]amino]methyl]-2-[(4-methylpiperazin-1-yl)methyl]phenol trihydrochloride]",70
29,18,"CN1CCN(Cc2cc(CNC3(c4cccs4)CCCC3)ccc2O)CC1 [Example 25, 2-[(4-Methylpiperazin-1-yl)methyl]-4-[[[1-(2-thienyl)cyclopentyl]amino]methyl]phenol trihydrochloride]",70
8,2,"CN1CCC(Cc2cccc(CNC3(c4ccccc4F)CCCC3)c2)CC1 [Example 18, 1-(2-fluorophenyl)-N-[[3-[1-methyl-4-piperidyl)methyl]phenyl]methyl]cyclopentanamine dihydrochloride]",95
50,30,"Oc1ccc(CNC2(c3ccccc3F)CCCC2)cc1CN1CCN(c2ccccc2)CC1 [Example 9, 4-[[[1-(2-Fluorophenyl)cyclopentyl]amino]methyl]-2-[(4-phenylpiperazin-1-yl)methyl]phenol trihydrochloride]",50
35,50,"Fc1ccccc1C1(NCc2cccc(CN3CCCCC3)c2)CCCC1 [Example 21, 1-(2-Fluorophenyl)-N-[[3-(1-piperidylmethyl)phenyl]methyl]cyclopentanamine dihydrochloride]",76
16,12,"COc1cccc(C2(NCc3ccc(O)c(CN4CCN(C)CC4)c3)CCCC2)c1 [Example 27, 4-[[[1-(3-Methoxyphenyl)cyclopentyl]amino]methyl]-2-[(4-methylpiperazin-1-yl)methyl]phenol trihydrochloride]",70
15,14,"CN1CCN(Cc2cc(CNC3(c4cccc(F)c4)CCCC3)ccc2O)CC1 [Example 22, 4-[[[1-(3-Fluorophenyl)cyclopentyl]amino]methyl]-2-[(4-methylpiperazin-1-yl)methyl]phenol trihydrochloride]",80
40,24,"Oc1ccc(CNC2(c3ccccc3F)CCCC2)cc1CN1CCNCC1 [Example 11, 4-[[[1-(2-Fluorophenyl)cyclopentyl]amino]methyl]-2-(piperazin-1-ylmethyl)-phenol]",70
43,26,"COc1ccc(CNC2(c3ccccc3F)CCCC2)cc1CN1CCN(C)CC1 [Example 5, 1-(2-Fluorophenyl)-N-[[4-methoxy-3-[(4-methylpiperazin-1-yl)methyl]-phenyl]methyl]cyclopentanamine trihydrochloride]",75

SMILES,EC50 (REV-ERB) [µM],GI50 [1] [µM],Emax [1] [%]
"CN1CCC(Cc2cccc(CNC3(c4ccc(F)cc4)CCCC3)c2)CC1 [Example 32, 1-(4-Fluorophenyl)-N-[[3-[(1-methyl-4-piperidyl)methyl]phenyl]methyl]cyclopentanamine dihydrochloride]",2,1,97
"CN1CCN(Cc2cc(CNC3(c4ccccc4F)CCC(F)(F)CC3)ccc2O)CC1 [Example 17, 4-[[[4,4-difluoro-1-(2-fluorophenyl)cyclohexyl]amino]methyl]-2-[(4-methyl-piperazin-1-yl)methyl]phenol trihydrochloride]",21,18,90
"CN1CCN(Cc2cc(CNC3(c4ccccc4F)CCCCC3)ccc2O)CC1 [Example 3, 4-[[[1-(2-Fluorophenyl)cyclohexyl]amino]methyl]-2-[(4-methylpiperazin-1-yl)methyl]phenol trihydrochloride]",20,14,95
